Measurements as given in ChEMBL document CHEMBL5465560, “Selectivity Literature for EUbOPEN Chemogenomic Library” (2024).

Assays:
[1] = target: T1, NUAK family SNF1-like kinase 1 (Homo sapiens) (UniProt O60285); assay: Selectivity interaction (KinomeScan (DiscoverX)) EUB0000595a NUAK1; conditions: at 10 µM
T1 sequence (whole entry): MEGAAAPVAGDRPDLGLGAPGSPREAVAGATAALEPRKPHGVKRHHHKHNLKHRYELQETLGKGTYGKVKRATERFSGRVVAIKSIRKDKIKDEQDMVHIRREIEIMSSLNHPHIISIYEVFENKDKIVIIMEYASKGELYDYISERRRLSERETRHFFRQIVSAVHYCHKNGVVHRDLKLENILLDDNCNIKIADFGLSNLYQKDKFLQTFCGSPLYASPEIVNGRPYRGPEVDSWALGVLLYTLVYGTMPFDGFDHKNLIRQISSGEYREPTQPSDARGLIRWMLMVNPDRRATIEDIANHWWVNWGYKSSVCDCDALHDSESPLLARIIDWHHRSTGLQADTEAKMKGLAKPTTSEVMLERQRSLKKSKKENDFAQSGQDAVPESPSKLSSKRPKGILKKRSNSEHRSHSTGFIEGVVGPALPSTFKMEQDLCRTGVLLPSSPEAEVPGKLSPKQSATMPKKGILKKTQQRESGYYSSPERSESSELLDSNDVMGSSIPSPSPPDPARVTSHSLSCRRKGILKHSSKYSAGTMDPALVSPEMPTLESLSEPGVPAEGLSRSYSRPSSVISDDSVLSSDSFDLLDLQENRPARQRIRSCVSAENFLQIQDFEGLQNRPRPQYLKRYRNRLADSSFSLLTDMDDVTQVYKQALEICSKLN

[2] = tested on: Hepatocyte growth factor receptor (Homo sapiens), P08581 [Y1235D]; conditions: at 10 µM
[3] = target: Epithelial discoidin domain-containing receptor 1 (Homo sapiens) (UniProt Q08345); assay: Selectivity interaction (KinomeScan (DiscoverX)) EUB0000045b DDR1
Sequence of Epithelial discoidin domain-containing receptor 1 (Homo sapiens) (Q08345 whole entry, the tested form may be a part): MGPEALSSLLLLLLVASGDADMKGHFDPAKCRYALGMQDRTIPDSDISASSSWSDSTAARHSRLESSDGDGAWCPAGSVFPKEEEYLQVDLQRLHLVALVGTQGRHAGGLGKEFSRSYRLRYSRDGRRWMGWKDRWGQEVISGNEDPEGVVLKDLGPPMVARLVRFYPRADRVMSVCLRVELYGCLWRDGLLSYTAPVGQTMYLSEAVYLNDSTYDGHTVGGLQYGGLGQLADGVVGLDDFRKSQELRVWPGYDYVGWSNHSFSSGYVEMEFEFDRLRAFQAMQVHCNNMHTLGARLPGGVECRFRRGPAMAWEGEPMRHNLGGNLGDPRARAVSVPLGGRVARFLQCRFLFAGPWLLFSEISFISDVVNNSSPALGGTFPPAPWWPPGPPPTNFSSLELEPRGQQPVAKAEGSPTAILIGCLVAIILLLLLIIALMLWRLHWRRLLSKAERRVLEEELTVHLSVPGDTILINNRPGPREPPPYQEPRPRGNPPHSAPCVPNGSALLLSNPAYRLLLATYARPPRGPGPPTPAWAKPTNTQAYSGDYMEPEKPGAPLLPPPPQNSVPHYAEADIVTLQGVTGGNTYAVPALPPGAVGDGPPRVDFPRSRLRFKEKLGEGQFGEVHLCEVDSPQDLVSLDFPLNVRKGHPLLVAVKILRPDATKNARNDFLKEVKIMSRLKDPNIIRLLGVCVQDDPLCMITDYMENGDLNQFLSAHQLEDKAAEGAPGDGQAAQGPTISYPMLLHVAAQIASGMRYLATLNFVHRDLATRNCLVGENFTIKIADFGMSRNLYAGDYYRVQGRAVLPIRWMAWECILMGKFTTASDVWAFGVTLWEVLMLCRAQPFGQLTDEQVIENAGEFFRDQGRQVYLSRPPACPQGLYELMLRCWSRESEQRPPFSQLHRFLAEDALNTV

[4] = target: Mitogen-activated protein kinase 11 (Homo sapiens) (UniProt Q15759); assay: Selectivity interaction (KinomeScan (DiscoverX)) EUB0001079a MAPK11; conditions: at 1 µM
Sequence of Mitogen-activated protein kinase 11 (Homo sapiens) (Q15759 whole entry): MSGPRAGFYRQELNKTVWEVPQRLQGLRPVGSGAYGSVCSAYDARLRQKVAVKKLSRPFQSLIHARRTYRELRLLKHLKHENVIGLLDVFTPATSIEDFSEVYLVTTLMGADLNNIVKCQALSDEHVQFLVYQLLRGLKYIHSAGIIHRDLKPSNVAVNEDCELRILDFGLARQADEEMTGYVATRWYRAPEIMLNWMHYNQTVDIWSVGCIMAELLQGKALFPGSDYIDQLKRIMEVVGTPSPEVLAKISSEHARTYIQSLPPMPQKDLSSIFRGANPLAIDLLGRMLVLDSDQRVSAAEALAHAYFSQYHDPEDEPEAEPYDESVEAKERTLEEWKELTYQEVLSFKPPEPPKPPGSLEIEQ

[5] = target: Platelet-derived growth factor receptor beta (Homo sapiens, UniProt P09619); conditions: at 10 µM
Sequence of Platelet-derived growth factor receptor beta (P09619 whole entry): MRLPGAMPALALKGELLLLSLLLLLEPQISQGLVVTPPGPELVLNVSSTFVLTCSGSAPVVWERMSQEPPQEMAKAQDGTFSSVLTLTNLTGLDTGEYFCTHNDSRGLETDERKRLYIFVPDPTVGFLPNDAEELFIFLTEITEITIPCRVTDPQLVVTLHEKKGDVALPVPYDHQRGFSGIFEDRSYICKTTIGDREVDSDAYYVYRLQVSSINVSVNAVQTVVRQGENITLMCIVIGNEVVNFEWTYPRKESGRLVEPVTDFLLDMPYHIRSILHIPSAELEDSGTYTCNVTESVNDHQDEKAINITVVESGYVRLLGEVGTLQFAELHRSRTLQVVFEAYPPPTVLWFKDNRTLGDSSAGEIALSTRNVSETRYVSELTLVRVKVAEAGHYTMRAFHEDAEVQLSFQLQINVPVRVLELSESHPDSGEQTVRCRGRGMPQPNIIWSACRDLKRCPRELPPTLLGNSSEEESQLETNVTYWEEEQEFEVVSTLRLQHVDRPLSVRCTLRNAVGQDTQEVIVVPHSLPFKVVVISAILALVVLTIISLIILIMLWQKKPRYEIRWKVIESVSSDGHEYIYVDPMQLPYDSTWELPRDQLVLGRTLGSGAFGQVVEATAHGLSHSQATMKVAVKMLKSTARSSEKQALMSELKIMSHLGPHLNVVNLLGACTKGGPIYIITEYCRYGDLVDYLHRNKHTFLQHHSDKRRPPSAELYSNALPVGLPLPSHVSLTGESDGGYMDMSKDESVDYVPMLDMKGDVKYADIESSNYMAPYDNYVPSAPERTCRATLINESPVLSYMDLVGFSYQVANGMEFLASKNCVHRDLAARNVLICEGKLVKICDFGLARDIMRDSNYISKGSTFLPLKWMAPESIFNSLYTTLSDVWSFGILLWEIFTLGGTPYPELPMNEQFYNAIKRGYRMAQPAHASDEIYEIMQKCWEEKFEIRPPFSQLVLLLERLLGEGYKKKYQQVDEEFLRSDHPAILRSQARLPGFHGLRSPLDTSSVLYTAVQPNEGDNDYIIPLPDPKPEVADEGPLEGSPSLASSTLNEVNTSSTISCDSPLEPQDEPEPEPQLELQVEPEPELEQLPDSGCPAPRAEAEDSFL

[6] = target: Dual specificity mitogen-activated protein kinase kinase 1 (Homo sapiens, UniProt Q02750); assay: Selectivity interaction (Kinase panel (Eurofins)) EUB0001564a MAP2K1; conditions: at 1 µM
Sequence of Dual specificity mitogen-activated protein kinase kinase 1 (Q02750 whole entry): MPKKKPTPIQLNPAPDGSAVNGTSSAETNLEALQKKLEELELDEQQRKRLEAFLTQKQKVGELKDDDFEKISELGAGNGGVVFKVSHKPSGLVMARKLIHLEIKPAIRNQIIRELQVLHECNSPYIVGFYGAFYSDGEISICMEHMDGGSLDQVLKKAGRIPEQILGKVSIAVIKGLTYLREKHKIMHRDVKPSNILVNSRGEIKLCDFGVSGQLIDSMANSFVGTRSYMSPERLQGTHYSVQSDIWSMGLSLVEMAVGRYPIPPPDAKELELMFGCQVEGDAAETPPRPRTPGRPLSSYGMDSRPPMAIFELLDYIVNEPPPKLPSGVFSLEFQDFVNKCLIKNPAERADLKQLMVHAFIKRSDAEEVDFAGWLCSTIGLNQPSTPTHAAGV

[7] = target: Ribosomal protein S6 kinase alpha-3 (Homo sapiens, UniProt P51812); assay: Selectivity interaction (KinomeScan (DiscoverX)) EUB0001619a RPS6KA3; conditions: at 1 µM
Sequence of Ribosomal protein S6 kinase alpha-3 (P51812 whole entry): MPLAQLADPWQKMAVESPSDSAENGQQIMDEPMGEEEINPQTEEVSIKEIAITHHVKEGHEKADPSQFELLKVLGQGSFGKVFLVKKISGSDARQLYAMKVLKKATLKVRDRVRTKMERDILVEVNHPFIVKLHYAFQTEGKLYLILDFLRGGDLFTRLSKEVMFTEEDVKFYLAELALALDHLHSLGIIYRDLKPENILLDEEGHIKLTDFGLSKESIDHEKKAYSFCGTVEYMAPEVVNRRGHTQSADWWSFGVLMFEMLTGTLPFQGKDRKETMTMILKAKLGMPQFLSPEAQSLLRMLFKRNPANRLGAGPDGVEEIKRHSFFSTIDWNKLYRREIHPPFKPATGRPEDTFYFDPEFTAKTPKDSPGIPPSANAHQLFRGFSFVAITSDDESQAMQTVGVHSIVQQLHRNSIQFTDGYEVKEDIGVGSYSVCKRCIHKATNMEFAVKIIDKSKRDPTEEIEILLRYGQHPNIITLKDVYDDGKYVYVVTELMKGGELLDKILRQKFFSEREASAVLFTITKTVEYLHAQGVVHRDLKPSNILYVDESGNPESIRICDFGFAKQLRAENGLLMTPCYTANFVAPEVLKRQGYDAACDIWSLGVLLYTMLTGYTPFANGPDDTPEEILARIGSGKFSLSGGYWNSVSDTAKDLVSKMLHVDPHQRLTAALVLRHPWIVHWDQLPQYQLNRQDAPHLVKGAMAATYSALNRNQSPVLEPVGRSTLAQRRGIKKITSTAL

[8] = target: T2, MAP kinase-activated protein kinase 5 (Homo sapiens) (UniProt Q8IW41); assay: Selectivity interaction (SelectScreen profiling (Invitrogen)) EUB0000607a MAPKAPK5; conditions: at 2 µM
T2 sequence (whole entry): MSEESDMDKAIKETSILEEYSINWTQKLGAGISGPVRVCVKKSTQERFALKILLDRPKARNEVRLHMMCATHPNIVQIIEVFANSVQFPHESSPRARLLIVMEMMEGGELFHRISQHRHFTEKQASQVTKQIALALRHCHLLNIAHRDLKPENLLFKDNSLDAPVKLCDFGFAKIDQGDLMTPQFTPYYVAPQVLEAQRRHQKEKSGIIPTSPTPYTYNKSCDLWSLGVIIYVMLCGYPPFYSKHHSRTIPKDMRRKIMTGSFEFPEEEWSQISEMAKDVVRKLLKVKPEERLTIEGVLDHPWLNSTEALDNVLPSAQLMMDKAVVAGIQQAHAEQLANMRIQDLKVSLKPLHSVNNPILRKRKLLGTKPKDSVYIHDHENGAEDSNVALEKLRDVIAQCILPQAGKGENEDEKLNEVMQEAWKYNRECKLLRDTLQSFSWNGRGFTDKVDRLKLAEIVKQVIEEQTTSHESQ

[9] = target: Hepatocyte growth factor-like protein (Homo sapiens) (UniProt P26927); assay: Selectivity interaction (KinomeScan (DiscoverX)) EUB0000607a MST1; conditions: at 10 µM
[10] = target: Dual specificity protein kinase CLK2 (Homo sapiens, UniProt P49760); assay: Selectivity interaction (KinomeScan (DiscoverX)) EUB0000618a CLK2; conditions: at 10 µM
Sequence of Dual specificity protein kinase CLK2 (P49760 whole entry, looked up): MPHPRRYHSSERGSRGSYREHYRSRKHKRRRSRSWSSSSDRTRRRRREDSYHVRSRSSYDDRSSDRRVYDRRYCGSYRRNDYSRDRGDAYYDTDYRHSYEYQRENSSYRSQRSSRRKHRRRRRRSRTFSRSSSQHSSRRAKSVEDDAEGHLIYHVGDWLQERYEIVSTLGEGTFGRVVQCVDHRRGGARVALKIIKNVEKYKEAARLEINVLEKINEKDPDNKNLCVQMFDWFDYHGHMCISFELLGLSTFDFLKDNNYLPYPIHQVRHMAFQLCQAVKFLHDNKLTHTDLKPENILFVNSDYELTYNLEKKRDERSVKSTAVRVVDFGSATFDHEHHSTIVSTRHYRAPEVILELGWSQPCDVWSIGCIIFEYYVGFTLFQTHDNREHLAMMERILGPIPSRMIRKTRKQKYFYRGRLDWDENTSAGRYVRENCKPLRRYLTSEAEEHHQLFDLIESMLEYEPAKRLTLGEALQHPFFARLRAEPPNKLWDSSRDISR

[11] = target: T3, Ephrin type-B receptor 4 (Homo sapiens) (UniProt P54760); assay: Selectivity interaction (Kinase panel (Invitrogen)) EUB0000639a EPHB4; conditions: at 200 nM
T3 sequence (whole entry): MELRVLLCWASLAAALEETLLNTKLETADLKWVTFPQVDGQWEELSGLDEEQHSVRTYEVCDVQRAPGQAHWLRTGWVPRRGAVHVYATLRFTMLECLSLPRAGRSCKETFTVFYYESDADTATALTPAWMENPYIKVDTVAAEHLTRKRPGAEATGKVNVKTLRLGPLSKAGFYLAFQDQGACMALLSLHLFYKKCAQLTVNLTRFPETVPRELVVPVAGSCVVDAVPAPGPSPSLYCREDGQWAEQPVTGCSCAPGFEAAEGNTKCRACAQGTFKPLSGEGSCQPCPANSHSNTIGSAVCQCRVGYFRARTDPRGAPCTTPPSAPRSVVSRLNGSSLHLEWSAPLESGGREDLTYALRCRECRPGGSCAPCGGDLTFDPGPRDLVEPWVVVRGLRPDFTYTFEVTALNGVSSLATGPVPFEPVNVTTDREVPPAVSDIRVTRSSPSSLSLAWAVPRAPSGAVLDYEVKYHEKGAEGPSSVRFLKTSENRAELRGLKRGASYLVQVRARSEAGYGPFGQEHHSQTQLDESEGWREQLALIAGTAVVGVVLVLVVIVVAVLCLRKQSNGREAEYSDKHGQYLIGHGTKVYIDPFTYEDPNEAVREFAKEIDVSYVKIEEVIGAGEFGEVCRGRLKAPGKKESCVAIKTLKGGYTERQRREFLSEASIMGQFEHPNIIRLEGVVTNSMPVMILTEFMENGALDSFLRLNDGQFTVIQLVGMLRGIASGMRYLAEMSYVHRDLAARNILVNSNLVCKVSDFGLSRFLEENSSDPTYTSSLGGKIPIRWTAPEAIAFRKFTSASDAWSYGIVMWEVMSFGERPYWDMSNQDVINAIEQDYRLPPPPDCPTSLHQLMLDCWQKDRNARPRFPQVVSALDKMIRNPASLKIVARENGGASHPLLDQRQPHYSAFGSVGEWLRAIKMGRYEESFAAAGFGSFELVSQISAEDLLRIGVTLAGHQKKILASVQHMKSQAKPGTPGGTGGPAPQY

[12] = target: Serine/threonine-protein kinase 26 (Homo sapiens, UniProt Q9P289); assay: Selectivity interaction (ActivX KiNativ screen (kinase selectivity in THP-1 cell lysates)) EUB0000639a STK26; format: subcellular; conditions: lysate, at 0.01 µM
Sequence of Serine/threonine-protein kinase 26 (Q9P289 2-416 limits assumed): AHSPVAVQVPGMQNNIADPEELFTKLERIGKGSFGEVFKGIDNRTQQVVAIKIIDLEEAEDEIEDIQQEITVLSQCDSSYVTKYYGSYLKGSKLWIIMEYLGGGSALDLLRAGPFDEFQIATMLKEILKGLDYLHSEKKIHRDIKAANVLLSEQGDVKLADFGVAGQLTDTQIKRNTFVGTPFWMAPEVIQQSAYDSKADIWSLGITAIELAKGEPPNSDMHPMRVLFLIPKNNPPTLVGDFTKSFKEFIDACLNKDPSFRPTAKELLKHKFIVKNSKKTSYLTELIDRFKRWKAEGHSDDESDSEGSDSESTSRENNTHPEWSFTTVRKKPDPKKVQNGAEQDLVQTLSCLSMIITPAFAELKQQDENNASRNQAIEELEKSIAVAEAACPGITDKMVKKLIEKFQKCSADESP

[13] = target: Bone morphogenetic protein receptor type-1B (Homo sapiens, UniProt O00238); assay: Selectivity interaction (KinomeScan (DiscoverX)) EUB0000655a BMPR1B; conditions: at 10 µM
Sequence of Bone morphogenetic protein receptor type-1B (O00238 whole entry): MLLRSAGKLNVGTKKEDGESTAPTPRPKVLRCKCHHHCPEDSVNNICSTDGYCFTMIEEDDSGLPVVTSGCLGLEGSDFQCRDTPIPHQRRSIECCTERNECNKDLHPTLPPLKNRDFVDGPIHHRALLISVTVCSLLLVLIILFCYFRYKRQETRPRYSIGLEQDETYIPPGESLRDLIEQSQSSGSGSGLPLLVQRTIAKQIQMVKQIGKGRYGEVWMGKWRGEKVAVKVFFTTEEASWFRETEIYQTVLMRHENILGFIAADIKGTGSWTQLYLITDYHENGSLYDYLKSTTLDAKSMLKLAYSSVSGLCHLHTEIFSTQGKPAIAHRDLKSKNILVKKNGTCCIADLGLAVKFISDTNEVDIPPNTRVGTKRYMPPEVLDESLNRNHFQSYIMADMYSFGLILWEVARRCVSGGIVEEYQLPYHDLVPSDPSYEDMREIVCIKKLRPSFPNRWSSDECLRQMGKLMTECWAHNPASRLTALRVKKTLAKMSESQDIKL

Structure (SMILES): COCC(=O)NC/C=C/c1ccc2ncnc(Nc3ccc(Oc4ccc(C)nc4)c(C)c3)c2c1 [CP-724714]
- % of control [1]: 100%
- % of control [2]: 81%

Structure (SMILES): C=CC(=O)Nc1cc(-n2c(=O)ccc3cnc4ccc(-c5ccc(NS(C)(=O)=O)cc5)cc4c32)ccc1C
- % of control ([3]; at 1 µM): 100%
- % of control ([3]; at 10 µM): 75%

Structure (SMILES): Nc1cnc(N2CCc3cc(S(=O)(=O)Nc4c(F)cc(Cl)cc4F)cc(N4CCCC4=O)c32)nc1 [TP-020n]
- % of control [4]: 100%

Structure (SMILES): Cc1cc([C@@H](C)Nc2ccccc2C(=O)O)c2nc(N3CCOCC3)cc(=O)n2c1 [AZD-6482]
- % of control [5]: 100%

Structure (SMILES): CC[C@@H](Nc1c(C#N)c(-c2ccc(-c3cccc(C)c3F)cc2)nc2cnccc12)C(=O)O [BAY-091]
- % of inhibition [6]: 21.5%

Structure (SMILES): N#Cc1cccc(-c2c[nH]c3ncnc(N4CCOCC4)c23)c1
- % of control [7]: 46%

Structure (SMILES): CNC(=O)Nc1ccc(-c2nc(N3CC4CCC(C3)O4)c3cnn(C4CCC5(CC4)OCCO5)c3n2)cc1
- % of inhibition [8]: 5%
- % of control [9]: 100%

Structure (SMILES): O[C@H]1CC[C@H](Nc2ncc3nc(Nc4c(F)cc(F)cc4F)n([C@H]4CCOC4)c3n2)CC1
- % of control [10]: 7.7%

Structure (SMILES): CC[C@@H]1[C@H](F)C(=O)N[C@@H]1COc1nccc2cc(C(N)=O)c(OC)cc12 [ZIMLOVISERTIB]
- % of inhibition [11]: 4.33%
- % of inhibition [12]: 19.6%

Structure (SMILES): CN(C)CCOc1ccc(-c2nc(-c3ccncc3)c(-c3ccc4c(c3)CC/C4=N\O)[nH]2)cc1
- % of control [13]: 26%
